Source: article PMC9292294 (Chemmedchem, 2021)

Legend:
porcine trypsin = porcine trypsin (Sus scrofa, UniProt P00761); experiment: Trypsin inhibition assay, fluorogenic substrate Z‐Gly‐Gly‐Arg‐AMC; format: biochemical; details: for inhibition at 5 µM: read-out: Trypsin inhibition % at 5 μM
FXIIa = FXIIa (Homo sapiens, UniProt P00748); experiment: Medium‐throughput screening; format: biochemical; details: read-out: Inhibition @100 nM [in MTS] FXIIa
thrombin (FIIa) = thrombin (FIIa) (Homo sapiens, UniProt P00734); experiment: Medium‐throughput screening; format: biochemical; details: read-out: Inhibition @100 nM [in MTS] FIIa
[1] = biological target: human α‐thrombin (factor IIa) (Homo sapiens, UniProt P00734); format: biochemical
human Factor Xa = human Factor Xa (Homo sapiens, UniProt P00742); experiment: FXa inhibition assay, fluorogenic substrate Boc‐Ile‐Glu‐Gly‐Arg‐AMC; format: biochemical
human β‐FXIIa = human β‐FXIIa (Homo sapiens, UniProt P00748); format: biochemical
human pooled plasma = experiment: In vitro plasma coagulation assay, activated partial thromboplastin time; details: 200 μM, fold increase compared to DMSO
human plasma β‐FXIIa = human plasma β‐FXIIa (Homo sapiens, UniProt P00748); experiment: Mass‐shift analysis of the covalent FXIIa‐inhibitor complex by SEC/ESI‐MS; format: binding; details: 15 min incubation, enzyme:inhibitor 1 : 20
human plasma β‐FXIIa, sequence (P00748 373-615 limits assumed, other chains not shown): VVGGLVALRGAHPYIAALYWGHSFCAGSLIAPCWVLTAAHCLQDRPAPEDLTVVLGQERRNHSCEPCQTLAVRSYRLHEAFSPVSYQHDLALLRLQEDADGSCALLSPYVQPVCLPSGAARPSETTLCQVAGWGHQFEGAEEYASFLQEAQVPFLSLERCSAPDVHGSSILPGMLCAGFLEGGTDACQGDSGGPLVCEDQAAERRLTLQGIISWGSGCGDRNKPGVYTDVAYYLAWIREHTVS

porcine trypsin, sequence (P00761 9-231): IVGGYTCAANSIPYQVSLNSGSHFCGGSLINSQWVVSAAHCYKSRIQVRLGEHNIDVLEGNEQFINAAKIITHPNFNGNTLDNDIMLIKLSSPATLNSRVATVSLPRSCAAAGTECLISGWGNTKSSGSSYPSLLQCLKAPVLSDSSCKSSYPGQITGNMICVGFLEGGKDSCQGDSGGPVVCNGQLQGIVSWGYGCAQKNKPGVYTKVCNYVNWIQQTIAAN
human β‐FXIIa, sequence (P00748 373-615 limits assumed, other chains not shown): as the sequence (P00748 373-615 limits assumed, other chains not shown) above
FXIIa, sequence (P00748 373-615 limits assumed, other chains not shown): as above
human Factor Xa, sequence (P00742 235-488 limits assumed): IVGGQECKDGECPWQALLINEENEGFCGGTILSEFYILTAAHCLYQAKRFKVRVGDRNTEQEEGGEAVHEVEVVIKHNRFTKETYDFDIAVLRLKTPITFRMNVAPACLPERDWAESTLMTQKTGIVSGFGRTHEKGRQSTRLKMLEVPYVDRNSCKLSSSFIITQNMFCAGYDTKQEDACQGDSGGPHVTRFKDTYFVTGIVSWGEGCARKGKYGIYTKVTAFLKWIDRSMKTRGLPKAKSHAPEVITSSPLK
human Factor Xa, sequence (P00742 41-179 limits assumed): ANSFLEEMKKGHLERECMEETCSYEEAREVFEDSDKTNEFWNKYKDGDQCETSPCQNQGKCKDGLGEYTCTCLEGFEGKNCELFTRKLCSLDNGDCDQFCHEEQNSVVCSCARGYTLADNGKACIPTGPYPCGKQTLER

Row | SMILES | IC50 (porcine trypsin) [µM] | inhibition at 0.1 µM (FXIIa) [%] | inhibition at 0.1 µM (thrombin (FIIa)) [%] | IC50 [1] [µM] | IC50 (human Factor Xa) [µM] | IC50 (human β‐FXIIa) [µM] | mass shift of FXIIa (acyl moiety adduct) (human plasma β‐FXIIa) [Da] | inhibition at 5 µM (porcine trypsin) [%] | fold improved FXIIa inhibitory activity (human β‐FXIIa; versus parent 33 h (122 nM vs. 33 nM)) [fold] | inhibition at 1 µM (human Factor Xa; read-out: FXa inhibition % at 1 μM) [%] | aPTT, fold (human pooled plasma) [fold]
1 | Nc1nc(-c2ccccn2)nn1C(=O)Cc1ccccc1I [32 a, 1‐(5‐Amino‐3‐(pyridin‐2‐yl)‐1H‐1,2,4‐triazol‐1‐yl)‐2‐(2‐iodophenyl)ethan‐1‐one] | > 5 | 54 | 2 | – | – | – | – | – | – | – | –
2 | Cc1cccc(-c2nc(N)n(C(=O)Cc3ccccc3I)n2)n1 [32 b, 1‐(5‐Amino‐3‐(6‐methylpyridin‐2‐yl)‐1H‐1,2,4‐triazol‐1‐yl)‐2‐(2‐iodophenyl)ethan‐1‐one] | > 5 | 54 | 0 | > 5 | > 5 | 0.073 ± 0.022 | – | – | – | – | –
3 | Nc1nc(-c2cnccn2)nn1C(=O)Cc1ccccc1I [32 c, 1‐(5‐Amino‐3‐(pyrazin‐2‐yl)‐1H‐1,2,4‐triazol‐1‐yl)‐2‐(2‐iodophenyl)ethan‐1‐one] | > 5 | 75 | 15 | 1.69 ± 0.167 | > 5 | 0.065 ± 0.009 | – | – | – | – | –
4 | Nc1nc(-c2ccccn2)nn1C(=O)[C@H]1CCCc2ccccc21 [33 a, (S)‐(5‐Amino‐3‐(pyridin‐2‐yl)‐1H‐1,2,4‐triazol‐1‐yl)(1,2,3,4‐tetrahydro‐naphthalen‐1‐yl)‐methanone] | > 5 | 73 | 10 | – | – | – | – | – | – | – | –
5 | Cc1cccc(-c2nc(N)n(C(=O)[C@H]3CCCc4ccccc43)n2)n1 [33 b, (S)‐(5‐Amino‐3‐(6‐methylpyridin‐2‐yl)‐1H‐1,2,4‐triazol‐1‐yl)(1,2,3,4‐tetrahydronaphthalen‐1‐yl)‐methanone] | > 5 | 36 | 5 | 0.819 ± 0.015 | > 5 | 0.214 ± 0.035 | – | – | – | – | –
6 | Nc1nc(-c2cnccn2)nn1C(=O)[C@H]1CCCc2ccccc21 [33 c, (S)‐(5‐Amino‐3‐(pyrazin‐2‐yl)‐1H‐1,2,4‐triazol‐1‐yl)(1,2,3,4‐tetrahydronaphthalen‐1‐yl)methanone] | > 5 | 80 | 36 | 0.143 ± 0.005 | > 5 | 0.106 ± 0.013 | – | – | – | – | 2.7
7 | Cc1nc(-c2cccs2)ccc1-c1nc(N)n(C(=O)[C@H]2CCCc3ccccc32)n1 [33 d, (S)‐(5‐Amino‐3‐(2‐methyl‐6‐(thiophen‐2‐yl)pyridin‐3‐yl)‐1H‐1,2,4‐triazol‐1‐yl)(1,2,3,4‐tetrahydro‐naphthalen‐1‐yl)methanone] | > 5 | 26 | 0 | > 5 | > 5 | 1.14 ± 0.334 | – | – | – | – | –
8 | Nc1nc(-c2ccc(F)cc2)nn1C(=O)[C@H]1CCCc2ccccc21 [33 f, (S)‐(5‐Amino‐3‐(4‐fluorophenyl)‐1H‐1,2,4‐triazol‐1‐yl)(1,2,3,4‐tetrahydronaphthalen‐1‐yl)‐methanone] | > 5 | 29 | 0 | > 5 | > 5 | ~2 | – | – | – | – | –
9 | Nc1nc(-c2ccc3ccccc3n2)nn1C(=O)[C@H]1CCCc2ccccc21 [33 g, (S)‐(5‐Amino‐3‐(quinolin‐2‐yl)‐1H‐1,2,4‐triazol‐1‐yl)(1,2,3,4‐tetrahydronaphthalen‐1‐yl)‐methanone] | > 5 | 94 | 5 | 1.01 ± 0.155 | > 5 | 0.033 ± 0.001 | 158.2 | – | – | – | –
10 | Nc1nc(-c2nccc3ccccc23)nn1C(=O)[C@H]1CCCc2ccccc21 [33 i, (S)‐(5‐Amino‐3‐(isoquinolin‐1‐yl)‐1H‐1,2,4‐triazol‐1‐yl)(1,2,3,4‐tetrahydronaphthalen‐1‐yl)‐methanone] | > 5 | 14 | 62 | 0.038 ± 0.009 | > 5 | 0.547 ± 0.058 | – | – | – | – | –
11 | Nc1nc(-c2ccccc2C(=O)N2CCCCC2)nn1C(=O)[C@H]1CCCc2ccccc21 [33 j, (S)‐(2‐(5‐Amino‐1‐(1,2,3,4‐tetrahydronaphthalene‐1‐carbonyl)‐1H‐1,2,4‐triazol‐3‐yl)phenyl)‐(piperidin‐1‐yl)methanone] | > 5 | 8 | 1 | 5.7 ± 0.33 | > 5 | 1.52 ± 0.182 | – | – | – | – | –
12 | Nc1nc(-c2cnc3ccccc3n2)nn1C(=O)c1cccc2ccccc12 [39 b, (5‐Amino‐3‐(quinoxalin‐2‐yl)‐1H‐1,2,4‐triazol‐1‐yl)(naphthalen‐1‐yl)methanone] | > 5 | – | – | > 5 | > 5 | – | – | – | – | – | –
13 | Nc1nc(-c2nccc3ccccc23)nn1C(=O)c1ccccc1 [41 a, (5‐Amino‐3‐(isoquinolin‐1‐yl)‐1H‐1,2,4‐triazol‐1‐yl)(phenyl)methanone] | > 5 | – | – | 0.063 ± 0.001 | > 5 | 0.236 ± 0.005 | – | – | – | – | –
14 | Nc1nc(-c2nccc3ccccc23)nn1C(=O)c1ccc2ccccc2c1 [41 c, (5‐Amino‐3‐(isoquinolin‐1‐yl)‐1H‐1,2,4‐triazol‐1‐yl)(naphthalen‐2‐yl)methanone] | > 5 | – | – | – | > 5 | > 5 | – | – | – | – | –

Now from value to compound, other results behind:

Row | IC50 (porcine trypsin) [µM] | inhibition at 0.1 µM (FXIIa) [%] | inhibition at 0.1 µM (thrombin (FIIa)) [%] | IC50 [1] [µM] | IC50 (human Factor Xa) [µM] | IC50 (human β‐FXIIa) [µM] | mass shift of FXIIa (acyl moiety adduct) (human plasma β‐FXIIa) [Da] | inhibition at 5 µM (porcine trypsin) [%] | fold improved FXIIa inhibitory activity (human β‐FXIIa; versus parent 33 h (122 nM vs. 33 nM)) [fold] | inhibition at 1 µM (human Factor Xa; read-out: FXa inhibition % at 1 μM) [%] | SMILES | aPTT, fold (human pooled plasma) [fold]
15 | > 5 | 8 | 0 | > 5 | > 5 | 0.716 ± 0.082 | – | – | – | – | Cc1nc(-c2cccs2)ccc1-c1nc(N)n(C(=O)Cc2ccccc2I)n1 [32 d, 1‐(5‐Amino‐3‐(2‐methyl‐6‐(thiophen‐2‐yl)pyridin‐3‐yl)‐1H‐1,2,4‐triazol‐1‐yl)‐2‐(2‐iodophenyl)‐ethan‐1‐one] | –
16 | > 5 | 3 | 1 | > 5 | > 5 | > 5 | – | – | – | – | CC(C)(C)c1nc(N)n(C(=O)Cc2ccccc2I)n1 [32 e, 1‐(5‐Amino‐3‐(tert‐butyl)‐1H‐1,2,4‐triazol‐1‐yl)‐2‐(2‐iodophenyl)ethan‐1‐one] | –
17 | > 5 | 0 | 1 | > 5 | > 5 | > 5 | – | – | – | – | CC(C)(C)c1nc(N)n(C(=O)[C@H]2CCCc3ccccc32)n1 [33 e, (S)‐(5‐Amino‐3‐(tert‐butyl)‐1H‐1,2,4‐triazol‐1‐yl)(1,2,3,4‐tetrahydronaphthalen‐1‐yl)methanone] | –
18 | > 5 | 81 | 0 | > 5 | > 5 | 0.122 ± 0.035 | – | – | – | – | Cc1nc2ccccc2nc1-c1nc(N)n(C(=O)[C@H]2CCCc3ccccc32)n1 [33 h, (S)‐(5‐Amino‐3‐(3‐methylquinoxalin‐2‐yl)‐1H‐1,2,4‐triazol‐1‐yl)(1,2,3,4‐tetrahydronaphthalen‐1‐yl)methanone] | –
19 | – | – | – | > 5 | > 5 | 0.033 ± 0.007 | – | 32 | 3.7 | – | Nc1nc(-c2cnc3ccccc3n2)nn1C(=O)[C@H]1CCCc2ccccc21 [39 a, (S)‐(5‐Amino‐3‐(quinoxalin‐2‐yl)‐1H‐1,2,4‐triazol‐1‐yl)(1,2,3,4‐tetrahydronaphthalen‐1‐yl)‐methanone] | –
20 | > 5 | – | – | 0.124 ± 0.01 | > 5 | 0.013 ± 0.002 | – | – | – | – | Nc1nc(-c2ccc3ccccc3n2)nn1C(=O)c1ccccc1 [40 a, (5‐Amino‐3‐(quinoline‐2‐yl)‐1H‐1,2,4‐triazol‐1‐yl)(phenyl)methanone] | –
21 | > 5 | – | – | 0.348 ± 0.015 | – | 0.008 ± 0.002 | – | – | – | – | Nc1nc(-c2ccc3ccccc3n2)nn1C(=O)c1cccc2ccccc12 [40 b, (5‐Amino‐3‐(quinolin‐2‐yl)‐1H‐1,2,4‐triazol‐1‐yl)(naphthalen‐1‐yl)methanone] | –
22 | – | -1 | 91 | – | – | > 5 | – | 59 | – | 34 | [H]/N=C(/N)c1ccc(NCc2nc3cc(C(=O)N(CCC(=O)O)c4ccccn4)ccc3n2C)cc1 [Dabigatran, reference compound] | –
23 | > 5 | -1 | 1 | – | – | > 5 | – | – | – | – | O=C(NC[C@H]1CN(c2ccc(N3CCOCC3=O)cc2)C(=O)O1)c1ccc(Cl)s1 [Rivaroxaban, reference compound] | –
